This test has as its target human PCSK9 (Homo sapiens, UniProt Q8NBP7). Put plainly: PCSK9 ligand binding TR-FRET assay (interference with binding of human PCSK9 to human LDLR). The following applies: for Max % inhibition: PCSK9 FRET assay, efficacy (Amax), 100% = 1 uM unlabeled human PCSK9, 0% = DMSO. How it is done:
The PCSK9 binding of the compounds of the disclosure were measured using a time resolved fluorescence resonance energy transfer (TR-FRET) assay. This time resolved fluorescence resonance energy transfer (TR-FRET) assay measures the ability of a compound of the present disclosure to interfere with the binding of human PCSK9 to human LDLR, providing measures of both potency (IC50) and efficacy (Amax).
These solutions were pipetted into columns 1 and 11 of the compound plate. Threefold serial dilutions were generated in columns 2-10 and 12-20 of the compound plate by transferring 10 uL into 20 uL of DMSO. Columns 21 and 22 of the compound plate were negative controls containing DMSO alone.
An intermediate plate was generated in a Greiner V bottom plate by transferring 8 uL from each well of the master plate into a corresponding well containing 92 uL of assay buffer and mixing thoroughly.
A Proxi plate-low volume assay plate was used for the assay. […] For the positive control wells in columns 23 and 24 of the plate, 5 uL of unlabeled human PCSK9 was added at 4 uM in assay buffer containing 8% DMSO. Following a 30 minute incubation, 5 uL of 4 nM Human LDLR extracellular domain-Europium Kryptate was added and the mixture was incubated for an additional 2 hours.
The FRET ratio (FRET/Europium) was used for calculations.
Data is expressed as percent inhibition: (value−0%)/(100%−0%).
On the technique in general: Time-resolved FRET reads energy transfer from a long-lived donor to a nearby acceptor.

Setting [1] is: TR-FRET, human PCSK9 Alexa Fluor 647 / human LDLR extracellular domain-Europium Kryptate, read-out: PCSK9 FRET Assay IC50.

These results are taken from patent US20230089867A1, “CYCLIC PENTAMER COMPOUNDS AS PROPROTEIN CONVERTASE SUBTILISIN/KEXIN TYPE 9 (PCSK9) INHIBITORS FOR THE TREATMENT OF METABOLIC DISORDER” (Novartis AG, priority 2018, published 2023).

Where two headings read alike, the source gives them in different places.

For the compound `COC[C@@H]1NC(=O)[C@H](C)N(Cc2ccc(Cl)cc2Oc2ccc(-c3cnc(CN4CCC4)n3C)cc2)C(=O)C[C@@H](Cc2ccccc2)C(=O)N(C)[C@@H](C)CNC(=O)C[C@H](Cc2ccc(Cl)cc2)N(C)C1=O` [Compound 76, (2S,5S,8S,13S,16R)-1-(2-(4-(2-(azetidin-1-ylmethyl)-1-methyl-1H-imidazol-5-yl)phenoxy)-4-chlorobenzyl)-16-benzyl-8-(4-chlorobenzyl)-5-(methoxymethyl)-2,7,13,14-tetramethyl-1,4,7,11,14-pentaazacyclooctadecane-3,6,10,15,18-pentaone], the Max % inhibition came out at 96.97%. Further, the IC50 under setting [1] is 1 nM.

Regarding `CNC(=O)C[C@@H]1NC(=O)[C@H](C)N(Cc2ccc(Cl)cc2Oc2ccc(-c3cnc(CN(C)C)n3C)cc2)C(=O)C[C@@H](Cc2ccccc2)C(=O)N(C)[C@@H](C)CNC(=O)C[C@H](Cc2ccc(Cl)cc2)N(C)C1=O` [Compound 221, 2-((2S,5S,8S,13S,16R)-16-benzyl-1-(4-chloro-2-(4-(2-((dimethylamino)methyl)-1-methyl-1H-imidazol-5-yl)phenoxy)benzyl)-8-(4-chlorobenzyl)-2,7,13,14-tetramethyl-3,6,10,15,18-pentaoxo-1,4,7,11,14-pentaazacyclooctadecan-5-yl)-N-methylacetamide], the Max % inhibition is given as 98.35%. Moreover, the IC50 under setting [1] worked out at 1.4 nM.

For the compound `COC[C@@H]1NC(=O)[C@H](C)N(Cc2ccc(Cl)cc2Oc2ccc(-c3cnc(CN(C)C)n3C)cc2)C(=O)C[C@@H](Cc2ccccn2)C(=O)N(C)[C@H]2CCCC[C@@H]2NC(=O)C[C@H](Cc2ccc(Cl)cc2)N(C)C1=O` [Compound 284, (4S,7S,10S,14R,16aS,20aS)-11-(4-chloro-2-(4-(2-((dimethylamino)methyl)-1-methyl-1H-imidazol-5-yl)phenoxy)benzyl)-4-(4-chlorobenzyl)-7-(methoxymethyl)-5,10,16-trimethyl-14-(pyridin-2-ylmethyl)hexadecahydrobenzo[l][1,4,7,11,14]pentaazacyclooctadecine-2,6,9,12,15(3H)-pentaone], the Max % inhibition is 98.50%. In addition, under setting [1], the IC50 stood at 0.9 nM.

As to `COCCN(C)C(=O)C[C@H]1C(=O)N[C@@H](COC)C(=O)N(C)[C@@H](Cc2ccc(Cl)cc2)CC(=O)N[C@H]2CCCC[C@@H]2N(C)C(=O)[C@H](Cc2ccccc2)CC(=O)N1Cc1ccc(Cl)cc1Oc1ccc(-c2cnc(CN(C)C)n2C)cc1` [Compound 239, 2-((4S,7S,10S,14R,16aS,20aS)-14-benzyl-11-(4-chloro-2-(4-(2-((dimethylamino)methyl)-1-methyl-1H-imidazol-5-yl)phenoxy)benzyl)-4-(4-chlorobenzyl)-7-(methoxymethyl)-5,16-dimethyl-2,6,9,12,15-pentaoxodocosahydrobenzo[l][1,4,7,11,14]pentaazacyclooctadecin-10-yl)-N-(2-methoxyethyl)-N-methylacetamide], the Max % inhibition turned out to be 106.17%. For the same compound, the IC50 under setting [1] is 1.3 nM.

For the compound `CC[C@H]1C(=O)N[C@@H](COC)C(=O)N(C)[C@@H](Cc2ccc(Cl)cc2)CC(=O)NC[C@H](C)N(C)C(=O)[C@H](Cc2ccccc2)CC(=O)N1Cc1ccc(Cl)cc1Oc1ccc(-c2cnc(CN(C)C)n2C)cc1` [Compound 70, (2S,5S,8S,13S,16R)-16-benzyl-1-(4-chloro-2-(4-(2-((dimethylamino)methyl)-1-methyl-1H-imidazol-5-yl)phenoxy)benzyl)-8-(4-chlorobenzyl)-2-ethyl-5-(methoxymethyl)-7,13,14-trimethyl-1,4,7,11,14-pentaazacyclooctadecane-3,6,10,15,18-pentaone], the Max % inhibition was 101.10%. Moreover, the IC50 under setting [1] turned out to be 0.9 nM.

For the compound `COC[C@@H]1NC(=O)[C@H](C)N(Cc2ccc(Cl)cc2Oc2ccc(-n3cnc([C@@H](C)N(C)C)c3C)cc2)C(=O)C[C@@H](Cc2ccccc2)C(=O)N(C)[C@@H](C)[C@H](C)NC(=O)C[C@H](Cc2ccc(Cl)cc2)N(C)C1=O` [Compound 270, (2S,5S,8S,12S,13S,16R)-16-benzyl-1-(4-chloro-2-(4-(4-((R)-1-(dimethylamino)ethyl)-5-methyl-1H-imidazol-1-yl)phenoxy)benzyl)-8-(4-chlorobenzyl)-5-(methoxymethyl)-2,7,12,13,14-pentamethyl-1,4,7,11,14-pentaazacyclooctadecane-3,6,10,15,18-pentaone], the Max % inhibition is 106.63%. For the same compound, the IC50 under setting [1] was determined as 2.7 nM.

As to `COC[C@@H]1NC(=O)[C@H](C)N(Cc2ccc(Cl)cc2Oc2ccc(-c3cncc(C4CCN(CCF)CC4)c3)cc2)C(=O)C[C@@H](Cc2ccccc2)C(=O)N(C)[C@@H](C)CNC(=O)C[C@H](Cc2ccc(Cl)cc2)N(C)C1=O`, the IC50 is 3.2 nM.

Turning to `COCC(=O)N1CCn2c(nnc2-c2ccc(Oc3cc(Cl)ccc3CN3C(=O)C[C@@H](Cc4ccccc4)C(=O)N(C)[C@@H](C)CNC(=O)C[C@H](Cc4ccc(Cl)cc4)N(C)C(=O)[C@H](COC)NC(=O)[C@@H]3C)cc2)C1` [Compound 116, (2S,5S,8S,13S,16R)-16-benzyl-1-(4-chloro-2-(4-(7-(2-methoxyacetyl)-5,6,7,8-tetrahydro-[1,2,4]triazolo[4,3-a]pyrazin-3-yl)phenoxy)benzyl)-8-(4-chlorobenzyl)-5-(methoxymethyl)-2,7,13,14-tetramethyl-1,4,7,11,14-pentaazacyclooctadecane-3,6,10,15,18-pentaone], the Max % inhibition amounted to 59.45%. The concentration for half-maximal inhibition (IC50) under setting [1] came out at 4.8 nM.

Consider `COC[C@@H]1NC(=O)C(CCN)N(Cc2ccc(Cl)cc2Oc2ccc(-c3cnc(CN(C)C)n3C)cc2)C(=O)C[C@@H](Cc2ccccc2)C(=O)N(C)[C@H]2CCCC[C@@H]2NC(=O)C[C@H](Cc2ccc(Cl)cc2)N(C)C1=O` (single isomer, unassigned) [Compound 204], for which the Max % inhibition was found to be 83.07%. The IC50 under setting [1] is 286 nM.

Regarding `COC[C@@H]1NC(=O)[C@H](C)N(Cc2ccc(Cl)cc2Oc2ccc(-c3cnc(CN(C)C)n3C)cc2)C(=O)C[C@@H](OC)C(=O)N(C)[C@@H](C)CNC(=O)C[C@H](Cc2ccc(Cl)cc2)N(C)C1=O` [Compound 159, (2S,5S,8S,13S,16R)-1-(4-chloro-2-(4-(2-((dimethylamino)methyl)-1-methyl-1H-imidazol-5-yl)phenoxy)benzyl)-8-(4-chlorobenzyl)-16-methoxy-5-(methoxymethyl)-2,7,13,14-tetramethyl-1,4,7,11,14-pentaazacyclooctadecane-3,6,10,15,18-pentaone], the Max % inhibition was determined as 55.26%. For the same compound, the IC50 under setting [1] amounted to 74 nM.

For the compound `COC[C@@H]1NC(=O)[C@H](C)N(Cc2ccc(Cl)cc2Oc2ccc(-c3cnc(CN(C)C)n3C)cc2)C(=O)CC(Cn2ccccc2=O)C(=O)N(C)[C@H]2CCCC[C@@H]2NC(=O)C[C@H](Cc2ccc(Cl)cc2)N(C)C1=O` (stereo partly drawn) [Compound 275, (4S,7S,10S,16aS,20aS)-11-(4-chloro-2-(4-(2-((dimethylamino)methyl)-1-methyl-1H-imidazol-5-yl)phenoxy)benzyl)-4-(4-chlorobenzyl)-7-(methoxymethyl)-5,10,16-trimethyl-14-((2-oxopyridin-1(2H)-yl)methyl)hexadecahydrobenzo[l][1,4,7,11,14]pentaazacyclooctadecine-2,6,9,12,15(3H)-pentaone], the Max % inhibition is 102.47%. Further, the IC50 under setting [1] turned out to be 0.8 nM.

`COC[C@@H]1NC(=O)[C@H](C)N(Cc2ccc(Cl)cc2Oc2ccc(-c3cnc(CN4CCCC4)n3C)cc2)C(=O)C[C@@H](Cc2ccccc2)C(=O)N(C)[C@@H](C)[C@H](C)NC(=O)C[C@H](Cc2ccc(Cl)cc2)N(C)C1=O` [Compound 198, (2S,5S,8S,12S,13S,16R)-16-benzyl-1-(4-chloro-2-(4-(1-methyl-2-(pyrrolidin-1-ylmethyl)-1H-imidazol-5-yl)phenoxy)benzyl)-8-(4-chlorobenzyl)-5-(methoxymethyl)-2,7,12,13,14-pentamethyl-1,4,7,11,14-pentaazacyclooctadecane-3,6,10,15,18-pentaone]: the Max % inhibition worked out at 98.27%. Moreover, the IC50 under setting [1] was determined as 0.6 nM.

For `C[C@H]1CNC(=O)C[C@H](Cc2ccc(Cl)cc2)N(C)C(=O)[C@H](CCC(=O)O)NC(=O)[C@H](C)N(Cc2ccc(Cl)cc2Oc2ccc(-c3cnc(CN(C)C)n3C)cc2)C(=O)C[C@@H](Cc2ccccc2)C(=O)N1C` [Compound 233, 3-((2S,5S,8S,13S,16R)-16-benzyl-1-(4-chloro-2-(4-(2-((dimethylamino)methyl)-1-methyl-1H-imidazol-5-yl)phenoxy)benzyl)-8-(4-chlorobenzyl)-2,7,13,14-tetramethyl-3,6,10,15,18-pentaoxo-1,4,7,11,14-pentaazacyclooctadecan-5-yl)propanoic acid], the Max % inhibition amounted to 90.08%. Under setting [1], the IC50 stood at 705 nM.

On to `COC[C@@H]1NC(=O)[C@H](CCN2CCOCC2)N(Cc2ccc(Cl)cc2Oc2ccc(-c3cnc(CN(C)C)n3C)cc2)C(=O)C[C@@H](Cc2ccccc2)C(=O)N(C)[C@@H](C)[C@H](C)NC(=O)C[C@H](Cc2ccc(Cl)cc2)N(C)C1=O` [Compound 94, (2S,5S,8S,12S,13S,16R)-16-benzyl-1-(4-chloro-2-(4-(2-((dimethylamino)methyl)-1-methyl-1H-imidazol-5-yl)phenoxy)benzyl)-8-(4-chlorobenzyl)-5-(methoxymethyl)-7,12,13,14-tetramethyl-2-(2-morpholinoethyl)-1,4,7,11,14-pentaazacyclooctadecane-3,6,10,15,18-pentaone], for which the Max % inhibition is 104.90%. Under setting [1], the IC50 came out at 2.4 nM.

For orientation: IC50 means the concentration that inhibits the measured activity by half.
